Measurements published in PubChem BioAssay (NCI).
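Cultured in 96-well plates, cells were exposed to test compound for 48 hours across five concentrations. Here, GI50 denotes the concentration required for 50% inhibition of growth. TGI denotes the concentration required for complete inhibition of growth.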

Key:
Test in all cases: inhibition of tumour cell growth, NCI panel, 48 h
A498 renal = system: A498 renal
BT-549 breast = system: BT-549 breast
CCRF-CEM leukemia = system: CCRF-CEM leukemia
COLO 205 colon = system: COLO 205 colon
DU-145 prostate = system: DU-145 prostate
EKVX NSCLC = system: EKVX NSCLC
HCC-2998 colon = system: HCC-2998 colon
HCT-116 colon = system: HCT-116 colon
HCT-15 colon = system: HCT-15 colon
HL-60(TB) leukemia = system: HL-60(TB) leukemia
HOP-62 NSCLC = system: HOP-62 NSCLC
HOP-92 NSCLC = system: HOP-92 NSCLC
HS 578T breast = system: HS 578T breast
HT29 colon = system: HT29 colon
IGROV1 ovarian = system: IGROV1 ovarian
K-562 leukemia = system: K-562 leukemia
KM12 colon = system: KM12 colon
LOX IMVI melanoma = system: LOX IMVI melanoma
M14 melanoma = system: M14 melanoma
MALME-3M melanoma = system: MALME-3M melanoma
MCF7 breast = system: MCF7 breast
MDA-MB-231 breast = system: MDA-MB-231 breast
MDA-MB-435 = system: MDA-MB-435
MOLT-4 leukemia = system: MOLT-4 leukemia
NCI-H226 lung = system: NCI-H226 lung
NCI-H23 lung = system: NCI-H23 lung
NCI-H460 lung = system: NCI-H460 lung
NCI-H522 lung = system: NCI-H522 lung
NCI/ADR-RES ovarian = system: NCI/ADR-RES ovarian
OVCAR-3 ovarian = system: OVCAR-3 ovarian
OVCAR-4 ovarian = system: OVCAR-4 ovarian
OVCAR-5 ovarian = system: OVCAR-5 ovarian
OVCAR-8 ovarian = system: OVCAR-8 ovarian
PC-3 prostate = system: PC-3 prostate
RPMI-8226 leukemia = system: RPMI-8226 leukemia
RXF 393 renal = system: RXF 393 renal
SF-268 CNS = system: SF-268 CNS
SF-295 CNS = system: SF-295 CNS
SF-539 CNS = system: SF-539 CNS
SK-MEL-2 melanoma = system: SK-MEL-2 melanoma
SK-MEL-28 melanoma = system: SK-MEL-28 melanoma
SK-MEL-5 melanoma = system: SK-MEL-5 melanoma
SK-OV-3 ovarian = system: SK-OV-3 ovarian
SN12C renal = system: SN12C renal
SNB-19 CNS = system: SNB-19 CNS
SNB-75 CNS = system: SNB-75 CNS
SR leukemia = system: SR leukemia
SW-620 colon = system: SW-620 colon
T-47D breast = system: T-47D breast
TK-10 renal = system: TK-10 renal
UACC-257 melanoma = system: UACC-257 melanoma
UACC-62 melanoma = system: UACC-62 melanoma
UO-31 renal = system: UO-31 renal

For `C#C[C@@]1(O)[C@@H](CO)O[C@@H](n2cc(Br)c3c(N)ncnc32)[C@@H]1O`, the GI50 (A498 renal) was 227 nM, the TGI (A498 renal) was 587 nM and the GI50 (BT-549 breast) was 186 nM. The TGI (BT-549 breast) was 663 nM, the GI50 (CCRF-CEM leukemia) was 200 nM and the TGI (CCRF-CEM leukemia) was greater than 100000 nM. It also gave a GI50 (COLO 205 colon) of 89.1 nM, a TGI (COLO 205 colon) of 460 nM and a GI50 (DU-145 prostate) of 97.4 nM. The TGI (DU-145 prostate) was greater than 100000 nM, the GI50 (EKVX NSCLC) was 198 nM and the TGI (EKVX NSCLC) was 2680 nM. The GI50 (HCC-2998 colon) was 201 nM, the TGI (HCC-2998 colon) was 809 nM and the GI50 (HCT-116 colon) was 27.4 nM. It also gave a TGI (HCT-116 colon) greater than 100000 nM, a GI50 (HCT-15 colon) of 110 nM and a TGI (HCT-15 colon) greater than 100000 nM. It also gave a GI50 (HL-60(TB) leukemia) of 21.8 nM, a TGI (HL-60(TB) leukemia) of 75.7 nM and a GI50 (HOP-62 NSCLC) of 300 nM. The TGI (HOP-62 NSCLC) was greater than 21800 nM, the GI50 (HOP-92 NSCLC) was 218 nM and the TGI (HOP-92 NSCLC) was 1460 nM. The GI50 (HS 578T breast) was 644 nM, the TGI (HS 578T breast) was greater than 72400 nM and the GI50 (HT29 colon) was 38 nM. It also gave a TGI (HT29 colon) greater than 100000 nM, a GI50 (IGROV1 ovarian) of 69.9 nM and a TGI (IGROV1 ovarian) of 485 nM. For the same compound, the GI50 (K-562 leukemia) was 60.8 nM, the TGI (K-562 leukemia) was greater than 100000 nM and the GI50 (KM12 colon) was 107 nM. For the same compound, the TGI (KM12 colon) was greater than 100000 nM, the GI50 (LOX IMVI melanoma) was 55.2 nM and the TGI (LOX IMVI melanoma) was 249 nM. It also gave a GI50 (M14 melanoma) of 226 nM, a TGI (M14 melanoma) of 13500 nM and a GI50 (MALME-3M melanoma) of 708 nM. The TGI (MALME-3M melanoma) was 13100 nM, the GI50 (MCF7 breast) was 22.2 nM and the TGI (MCF7 breast) was 1470 nM. The GI50 (MDA-MB-231 breast) was 110 nM, the TGI (MDA-MB-231 breast) was greater than 100000 nM and the GI50 (MDA-MB-435) was 176 nM. The TGI (MDA-MB-435) was 10300 nM, the GI50 (MOLT-4 leukemia) was 112 nM and the GI50 (NCI-H226 lung) was 1280 nM. For the same compound, the TGI (NCI-H226 lung) was greater than 25200 nM, the GI50 (NCI-H23 lung) was 191 nM and the TGI (NCI-H23 lung) was 2850 nM. For the same compound, the GI50 (NCI-H460 lung) was 29.2 nM, the TGI (NCI-H460 lung) was 901 nM and the GI50 (NCI-H522 lung) was 97.8 nM. The TGI (NCI-H522 lung) was 444 nM, the GI50 (NCI/ADR-RES ovarian) was 45.1 nM and the TGI (NCI/ADR-RES ovarian) was 1020 nM. For the same compound, the GI50 (OVCAR-3 ovarian) was 215 nM, the TGI (OVCAR-3 ovarian) was 3770 nM and the GI50 (OVCAR-4 ovarian) was 366 nM. For the same compound, the TGI (OVCAR-4 ovarian) was greater than 100000 nM, the GI50 (OVCAR-5 ovarian) was 593 nM and the TGI (OVCAR-5 ovarian) was greater than 75300 nM. It also gave a GI50 (OVCAR-8 ovarian) of 13.5 nM, a TGI (OVCAR-8 ovarian) of 1120 nM and a GI50 (PC-3 prostate) of 89.3 nM. The TGI (PC-3 prostate) was greater than 29500 nM, the GI50 (RPMI-8226 leukemia) was 128 nM and the TGI (RPMI-8226 leukemia) was 828 nM. For the same compound, the GI50 (RXF 393 renal) was 480 nM, the TGI (RXF 393 renal) was 2290 nM and the GI50 (SF-268 CNS) was 482 nM. It also gave a TGI (SF-268 CNS) of 51700 nM, a GI50 (SF-295 CNS) of 297 nM and a TGI (SF-295 CNS) of 7520 nM. The GI50 (SF-539 CNS) was 298 nM, the TGI (SF-539 CNS) was 1530 nM and the GI50 (SK-MEL-2 melanoma) was 134 nM. It also gave a TGI (SK-MEL-2 melanoma) of 571 nM, a GI50 (SK-MEL-28 melanoma) of 3650 nM and a TGI (SK-MEL-28 melanoma) of 38100 nM. It also gave a GI50 (SK-MEL-5 melanoma) of 107 nM, a TGI (SK-MEL-5 melanoma) of 1940 nM and a GI50 (SK-OV-3 ovarian) of 44.1 nM. For the same compound, the TGI (SK-OV-3 ovarian) was 439 nM, the GI50 (SN12C renal) was 90.7 nM and the TGI (SN12C renal) was greater than 100000 nM. The GI50 (SNB-19 CNS) was 60.6 nM, the GI50 (SNB-75 CNS) was 234 nM and the TGI (SNB-75 CNS) was 746 nM. The GI50 (SR leukemia) was 60.8 nM, the TGI (SR leukemia) was greater than 100000 nM and the GI50 (SW-620 colon) was 48.7 nM. It also gave a TGI (SW-620 colon) greater than 100000 nM, a GI50 (T-47D breast) of 17.3 nM and a TGI (T-47D breast) of 177 nM. For the same compound, the GI50 (TK-10 renal) was 445 nM, the TGI (TK-10 renal) was greater than 92600 nM and the GI50 (UACC-257 melanoma) was 4080 nM. For the same compound, the TGI (UACC-257 melanoma) was 61600 nM, the GI50 (UACC-62 melanoma) was 230 nM and the TGI (UACC-62 melanoma) was 12300 nM. It also gave a GI50 (UO-31 renal) of 130 nM and a TGI (UO-31 renal) of 1500 nM.
